Test results reported in patent US9062045B2, “Triazolopyridine compounds” (Novartis AG, priority 2012, dated 2015).
Where a name gives a salt, the structure may show the parent alone. Read-outs that look alike come from different tables or passages of the source.

Experiments:
[1] = cited from earlier work
[2] = hPDE3 assay ([3H]cAMP scintillation proximity assay); type: biochemical, human; conditions: Table 3-C; title says PDE3, head says c-Met Biochem IC50 [nM]
[3] = molecular target: c-Met receptor tyrosine kinase, GST-c-MET (969-1390) (Homo sapiens (Human), UniProt P08581); conditions: read-out: c-Met Biochem IC50
Description: A number of compounds of the present invention were assayed in an antibody based kinase phosphorylation assay as follows.
The EPK kinase assay for c-Met receptor tyrosine kinase was developed, using the purified recombinant GST-fusion protein, containing the cytoplasmic domain of the enzyme.
The kinase assay is based on the LanthaScreen™ technology.
The kinase reactions were performed in 384 well microtiter plates in a total reaction volume of 10.05 μL. The assay plates were prepared with 0.05 μL per well of test compound in the appropriate test concentration, as described under “preparation of compound dilutions”. The reactions were started by combining 5 μL of ATP solution with 5 μL of enzyme-substrate mix (consisting of kinase and substrate). […] Subsequently 5 μL of detection mix (50 mM Tris/HCl, 2 mM DTT, 0.05% Tween20, 20 μM sodium orthovanadate, 1% BSA, 1 nM Tb-PY20 antibody) were added to the stopped reactions. After 45 minutes incubation in dark at room temperature, the plates were measured in a Perkinelmer Envision fluorescence reader.

GTL16 cells = experiment: GTL16 cell viability assay (CellTiter Glo); conditions: read-out: GTL-16 Proliferation IC50
Description: GTL16 Cell Viability Assay:
GTL16 expresses high level of c-Met receptor tyrosine kinase due to the gene amplification.
GTL16 cells were seeded in DMEM medium with 10% FBS and 1% Pene. & Strep. at 5000 cells/well/90 μL in 96 well plate and incubated overnight for attachment at 37° C. in 5% CO2 incubator. 10-fold serials dilutions of compounds were added to the cell as 10 μL/well. The final assay volume was 100 μl/well. The assay plates were incubated at 37° C. in 5% CO2 incubator for 24 hours. […] The chemiluminescent light unit was read in Envision from Perkin Elmer. All the tests were run at triplicates. The IC50 was calculated using Spotfire software.

[4] = monkey liver S-9; cited from earlier work
[5] = dog S-9 incubations; cited from earlier work
[6] = patients treated with SGX523; cited from earlier work
[7] = human liver S-9; cited from earlier work
human platelet PDE3 = human platelet PDE3 (Homo sapiens (Human), UniProt Q14432); experiment: hPDE3 assay ([3H]cAMP scintillation proximity assay); type: biochemical; conditions: human platelet PDE3
Description: Here, compounds of formula I were screened for their ability to inhibit human PDE3 in the assay based on Amersham Pharmacia Biotech's Phosphodiesterase (PDE) [^3H]-adenosine 3′,5′ cyclic phosphate ([^3H]cAMP) Scintillation Proximity Assay (SPA). The assay is based on the hydrolysis of [^3H]cAMP, by human platelet PDE3, to [^3H]5′-adenoside monophosphate (5′-AMP). The [^3H]5′-AMP is specifically captured by yttrium silicate SPA beads in the presence of zinc sulphate.
• Optiplate and TopSeal-S (Can berra Packard) • Human platelet PDE3 (partially purified from human platelets)—a titration curve of human platelet PDE3 activity was performed to optimise the concentration of hPDE3 required in the assay. • Yttrium silicate SPA beads and [^3H]cAMP (Amersham) • Tris-Base, magnesium chloride, ethylenediaminetetraacetic acid (di-sodium salt), bovine serum albumin BSA and cAMP (Sigma) Solutions and Buffers: • Assay buffer: 7.56 g Tris-Base was dissolved in approximately 800 mL distilled water and the pH adjusted to 7.5 with 1 M hydrochloric acid. 10.3 mL 1 M magnesium chloride and 4.25 mL 0.5 M EDTA were added. The solution was made to 1 L with distilled water and stored at 4° C. On day of use 18 mL of the above solution was removed and 2 mL 5 mg/ml BSA were added thereto. • Enzyme buffer: 10 mM Tris-HCl at pH 7.5, 1 mM EDTA • Yttrium silicate SPA beads: 1 vial was reconstituted in 28 mL distilled water and stored at 4° C. Assay
The assay was performed in a final volume of 100 μL per well of an Optiplate (Canberra Packard). A 10 μL aliquot of the test compound dissolved in DMSO/distilled water was placed in a well of an Optiplate plate, followed by the addition of 80 μL ‘Assay mix’ (5.5 μL [^3H]cAMP and 88 μL “cold” cAMP were diluted to 8.8 mL using assay buffer). The reaction was started by adding 10 μL hPDE3 (50 μL stock hPDE3 solution was diluted 50 fold to 2.5 mL using enzyme buffer). The plate was incubated at room temperature for 30 min, the reaction was then terminated by the addition of 50 μL Yttrium silicate SPA beads (pre-warmed to room temperature) to all wells. […] The plate was sealed using TopSeal-S according to the manufacturer's instructions and counted using a Packard TopCount, each well being counted for 1 min. IC50 values were determined using non-linear regression.

[8] = 2 μM ATP, 60 minutes at room temperature

c-Met receptor tyrosine kinase, GST-c-MET (969-1390), sequence (P08581 969-1390): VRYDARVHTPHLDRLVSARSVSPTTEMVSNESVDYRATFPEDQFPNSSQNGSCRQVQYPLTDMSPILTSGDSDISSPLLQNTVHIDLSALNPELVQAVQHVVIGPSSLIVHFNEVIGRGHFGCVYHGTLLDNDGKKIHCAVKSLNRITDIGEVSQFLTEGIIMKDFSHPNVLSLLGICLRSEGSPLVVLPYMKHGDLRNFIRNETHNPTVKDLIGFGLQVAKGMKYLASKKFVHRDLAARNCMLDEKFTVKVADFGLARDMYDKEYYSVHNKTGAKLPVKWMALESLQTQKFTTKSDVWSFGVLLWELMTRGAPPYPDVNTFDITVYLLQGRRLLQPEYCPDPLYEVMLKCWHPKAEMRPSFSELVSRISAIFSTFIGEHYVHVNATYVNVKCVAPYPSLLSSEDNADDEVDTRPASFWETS
human platelet PDE3, sequence (Q14432 whole entry): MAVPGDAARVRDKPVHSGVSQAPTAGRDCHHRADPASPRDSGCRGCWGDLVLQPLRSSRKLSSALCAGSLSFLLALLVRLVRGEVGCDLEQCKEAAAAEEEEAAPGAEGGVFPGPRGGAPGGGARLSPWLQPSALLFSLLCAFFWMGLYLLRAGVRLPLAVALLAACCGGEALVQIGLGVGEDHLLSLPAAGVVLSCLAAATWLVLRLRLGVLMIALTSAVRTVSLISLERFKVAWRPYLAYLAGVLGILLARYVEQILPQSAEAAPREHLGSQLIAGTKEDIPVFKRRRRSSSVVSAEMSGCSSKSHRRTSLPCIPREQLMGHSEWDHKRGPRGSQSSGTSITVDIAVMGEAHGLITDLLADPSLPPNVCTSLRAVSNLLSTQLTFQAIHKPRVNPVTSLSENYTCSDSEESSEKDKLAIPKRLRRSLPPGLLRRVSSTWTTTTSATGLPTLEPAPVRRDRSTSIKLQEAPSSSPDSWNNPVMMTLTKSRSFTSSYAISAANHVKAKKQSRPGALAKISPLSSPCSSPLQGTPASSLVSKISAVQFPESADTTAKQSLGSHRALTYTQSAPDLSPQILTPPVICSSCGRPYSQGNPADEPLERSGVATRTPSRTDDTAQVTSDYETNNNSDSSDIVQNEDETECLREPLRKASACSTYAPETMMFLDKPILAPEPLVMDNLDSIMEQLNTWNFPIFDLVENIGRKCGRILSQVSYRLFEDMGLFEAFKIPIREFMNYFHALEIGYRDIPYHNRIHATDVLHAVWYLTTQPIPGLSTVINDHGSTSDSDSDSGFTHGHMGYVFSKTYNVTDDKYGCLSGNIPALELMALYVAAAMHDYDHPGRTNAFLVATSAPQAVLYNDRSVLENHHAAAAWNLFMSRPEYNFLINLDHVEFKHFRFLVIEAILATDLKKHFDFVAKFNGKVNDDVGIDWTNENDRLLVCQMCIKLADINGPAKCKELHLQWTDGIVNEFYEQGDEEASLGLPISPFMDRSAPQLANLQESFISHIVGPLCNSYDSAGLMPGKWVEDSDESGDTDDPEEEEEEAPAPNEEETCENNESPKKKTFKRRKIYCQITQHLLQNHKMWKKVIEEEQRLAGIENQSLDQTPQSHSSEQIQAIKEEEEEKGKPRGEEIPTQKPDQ

**Q.** For `Cn1cc(-c2ccc3nnc(Sc4ccc5[nH]c(=O)ccc5c4)n3n2)cn1` [2-quinolinone-SGX523 metabolite, 6-(6-(1-methyl-1H-pyrazol-4-yl)-[1,2,4]triazolo[4,3-b]pyridazin-3-ylthio)quinolin-2(1H)-one], which “solubility compared with SGX523” value [1] is on record?
**A.** markedly less-soluble

**Q.** Which IC50 [2] does the source give for `Cn1cc(-c2ccc3nnc(C(F)(F)c4ccc5ncccc5c4)n3n2)cn1` [Comparator No. 1 (JNJ-38877605), 6-{Difluoro-[6-(1-methyl-1H-pyrazol-4-yl)-[1,2,4]triazolo[4,3-b]pyridazin-3-yl]-methyl}-quinoline, reference compound] here?
**A.** 4 nM

**Q.** What about the IC50 [3, 8] of the same molecule?
**A.** 3 nM

**Q.** And the IC50 (GTL16 cells; GTL16 cells, 24 hours)?
**A.** < 10 nM

**Q.** With `C/C(=N\OCCO)c1ccc2nnc(Cc3ccc4ncc(N5CCN(C)CC5)cc4c3)n2n1` [Comparator No. 2, 1-{3-[3-(4-Methyl-piperazin-1-yl)-quinolin-6-ylmethyl]-[1,2,4]triazolo[4,3-b]pyridazin-6-yl}-ethanone O-(2-hydroxy-ethyl)-oxime] as the molecule, how does the IC50 [2] read?
**A.** 4 nM

**Q.** What does the source list for `Cn1cc(-c2ccc3nnc(Sc4ccc5ncccc5c4)n3n2)cn1` [Comparator No. 4 (SGX523), 6-[6-(1-Methyl-1H-pyrazol-4-yl)-[1,2,4]triazolo[4,3-b]pyridazin-3-ylsulfanyl]-quinoline]?
**A.** generation of metabolite M11 [4]: generated; generation of metabolite M11 [5]: absent; renal function of patients [6]: compromised renal function; generation of metabolite M11 [7]: generated

**Q.** With `C[C@@H]1CN(c2cnc3ccc(Sc4nnc5ccc(-c6cnn(C)c6)cn45)cc3c2)C[C@H](C)N1` [Example 42, 3-((3S,5R)-3,5-Dimethylpiperazin-1-yl)-6-(6-(1-methyl-1H-pyrazol-4-yl)-[1,2,4]triazolo[4,3-a]pyridin-3-ylthio)quinoline] as the molecule, how does the IC50 (human platelet PDE3) read?
**A.** 29000 nM

**Q.** What about the IC50 [3, 8] of the same molecule?
**A.** 4 nM

**Q.** What about the IC50 (GTL16 cells; GTL16 cells, 24 hours) of the same molecule?
**A.** 0.6 nM

**Q.** Which IC50 (human platelet PDE3) does the source give for `Cn1cc(-c2cc(F)c3nnc(Sc4ccc5ncc(N)cc5c4)n3c2)cn1` [Example 55, 6-(8-Fluoro-6-(1-methyl-1H-pyrazol-4-yl)-[1,2,4]triazolo[4,3-a]pyridin-3-ylthio)quinolin-3-amine hydrochloride] here?
**A.** > 30000 nM

**Q.** And the IC50 (GTL16 cells)?
**A.** 1 nM

**Q.** With `Cn1cc(-c2ccc3nnc(Sc4ccc5ncc(N)cc5c4)n3c2)cn1` [Example 56, 6-(6-(1-Methyl-1H-pyrazol-4-yl)-[1,2,4]triazolo[4,3-a]pyridin-3-ylthio)quinolin-3-amine hydrochloride] as the molecule, how does the IC50 (human platelet PDE3) read?
**A.** 17000 nM

**Q.** What about the IC50 [3] of the same molecule?
**A.** 13 nM

**Q.** What about the IC50 (GTL16 cells) of the same molecule?
**A.** 33 nM

**Q.** For `c1cc2ncc(N3CCOCC3)cc2cc1Sc1nnc2ccc(-c3cn[nH]c3)cn12` [Example 57, 4-(6-(6-(1H-pyrazol-4-yl)-[1,2,4]triazolo[4,3-a]pyridin-3-ylthio)quinolin-3-yl)morpholine], which IC50 (human platelet PDE3) is on record?
**A.** 10000 nM

**Q.** And the IC50 (GTL16 cells; GTL16 cells, 24 hours)?
**A.** 10 nM

**Q.** With `Fc1cc(-c2cn[nH]c2)cn2c(Sc3ccc4ncc(N5CCOCC5)cc4c3)nnc12` [Example 58, 4-(6-(8-Fluoro-6-(1H-pyrazol-4-yl)-[1,2,4]triazolo[4,3-a]pyridin-3-ylthio)quinolin-3-yl)morpholine] as the molecule, how does the IC50 (human platelet PDE3) read?
**A.** 13000 nM

**Q.** And the IC50 (GTL16 cells; GTL16 cells, 24 hours)?
**A.** 8 nM

**Q.** For `C/C(=N\O)c1ccc2nnc(Sc3ccc4ncc(CN5CCOCC5)cc4c3)n2c1` [Example 79, (E)-1-(3-(3-(Morpholin-4-yl-methyl)quinolin-6-ylthio)-[1,2,4]triazolo[4,3-a]pyridin-6-yl)ethanone oxime], which IC50 (human platelet PDE3) is on record?
**A.** > 30000 nM

**Q.** And the IC50 [3, 8]?
**A.** 83 nM

**Q.** What about the IC50 (GTL16 cells; GTL16 cells, 24 hours) of the same molecule?
**A.** 1140 nM

**Q.** For `Cn1cc(-c2ccc3nnc(Sc4ccc5ncccc5c4)n3c2)cn1` [Reference Example No. 63, 6-(6-(1-methyl-1H-pyrazol-4-yl)-[1,2,4]triazolo[4,3-a]pyridin-3-ylthio)quinoline], which IC50 [2] is on record?
**A.** 15 nM

**Q.** For `Cn1cc(-c2cnc3ccc(Sc4nnc5ccc(-c6cnn(CCO)c6)cn45)cc3c2)cn1` [Reference Example No. 73, 2-(4-(3-(3-(1-methyl-1H-pyrazol-4-yl)quinolin-6-ylthio)-[1,2,4]triazolo[4,3-a]pyridin-6-yl)-1H-pyrazol-1-yl)ethanol, reference compound], which IC50 [2] is on record?
**A.** 7 nM

**Q.** And the IC50 [3]?
**A.** 5 nM
